Experimental data taken from ChEMBL document CHEMBL5042518, “Design of a Potent TLX Agonist by Rational Fragment Fusion” (J Med Chem, 2022).
The source made the active and inactive calls. The rule behind the calls is not given here.

How the values were obtained:
HEK-293T [1] = test: Cytotoxicity against human HEK293T cells assessed as reduction in cell viability at >=10 uM incubated for 24 hrs by WST-1 assay; type: toxicity, cell-based
HEK-293T [2] = test: Effect on Gal4-VP16 plasmid transfected in human HEK293T cells assessed as reporter activity at 100 uM incubated for 14 hrs by luciferase assay; type: functional, cell-based
[3] = molecular target: T1, Nuclear receptor subfamily 2 group E member 1 (Homo sapiens, UniProt Q9Y466); test: Agonist activity at human Gal4-fused TLX LBD expressed in human HEK293T cells coexpressing Gal4-VP16 assessed as repressor activity of receptor by measuring decrease in reporter activity measured after 14 hrs by Dual-Glo Luciferase assay; type: cell-based
[4] = molecular target: T1, Nuclear receptor subfamily 2 group E member 1; test: Agonist activity at human full length Gal4-fused TLX transfected in human HEK293T cells coexpressing pFR-TAE-Luc assessed as repressor activity of receptor by measuring decrease in reporter activity by dual-glo luciferase assay; type: cell-based
[5] = molecular target: T1, Nuclear receptor subfamily 2 group E member 1; test: Binding affinity to recombinant TLX LBD (unknown origin) by differential scanning fluorometry
[6] = molecular target: T1, Nuclear receptor subfamily 2 group E member 1; test: Destabilization of recombinant TLX LBD (unknown origin) assessed as change in enthalpy at 100 uM by isothermal titration calorimetry; conditions: filed as agonist
[7] = molecular target: T1, Nuclear receptor subfamily 2 group E member 1; test: Agonist activity at TLX (unknown origin) assessed as induction of receptor oligomerization using sGFP-labeled TLX LBD as acceptor and biotin TLX LBD as donor measured after 20 hrs incubation at RT and 2 hrs at 37 degC by HTRF assay
HEK-293T [8] = test: Cytotoxicity against human HEK293T cells assessed as reduction in cell viability incubated for 24 hrs by WST-1 assay; type: toxicity, cell-based
[9] = Half life in Sprague-Dawley rat liver microsomes at 10 uM pretreated for 30 mins with NADPH regenerating system followed by incubation with microsomes for 60 mins by HPLC analysis; type: ADME, Microsome; conditions: time 90 min
[10] = molecular target: T1, Nuclear receptor subfamily 2 group E member 1; test: Agonist activity at TLX in human T98G cells assessed as upregulation of SIRT1 mRNA expression at 3 uM measured after 8 hrs by qRT-PCR analysis; type: cell-based; conditions: filed as agonist
T98G [11] = test: Upregulation of TLX gene expression in human T98G cells at 3 uM measured after 8 hrs by qRT-PCR analysis; type: functional, cell-based
[12] = Solubility of the compound in DSF buffer in presence of 2% DMSO; type: physicochemical
[13] = molecular target: T1, Nuclear receptor subfamily 2 group E member 1; test: Destabilization of recombinant TLX LBD (unknown origin) assessed as change in entropy at 100 uM by isothermal titration calorimetry; conditions: filed as agonist
[14] = molecular target: T1, Nuclear receptor subfamily 2 group E member 1; test: Agonist activity at human Gal4-fused TLX LBD expressed in human HEK293T cells coexpressing Gal4-VP16 assessed as repressor activity of receptor by measuring decrease in reporter activity at 30 uM measured after 14 hrs by Dual-Glo Luciferase assay; type: cell-based
[15] = Drug degradation in Sprague-Dawley rat liver microsomes at 10 uM pretreated for 30 mins with NADPH regenerating system followed by incubation with microsomes for 30 mins by HPLC analysis; type: ADME, Microsome; conditions: time 60 min, read-out: Drug degradation
T98G [16] = test: Upregulation of TLX gene expression in human T98G cells at 10 uM measured after 8 hrs by qRT-PCR analysis; type: functional, cell-based
[17] = molecular target: T1, Nuclear receptor subfamily 2 group E member 1; conditions: filed as agonist, dose 100.0 µM
HEK-293T [18] = test: Cytotoxicity against human HEK293T cells assessed as reduction in cell viability at >10 uM incubated for 24 hrs by WST-1 assay; type: toxicity, cell-based
[19] = molecular target: T1, Nuclear receptor subfamily 2 group E member 1; test: Agonist activity at human Gal4-fused TLX LBD expressed in human HEK293T cells coexpressing Gal4-VP16 assessed as repressor activity of receptor by measuring decrease in reporter activity at 0.03 to 30 uM measured after 14 hrs by Dual-Glo Luciferase assay; type: cell-based; conditions: filed as agonist, dose 0.03-30 µM
[20] = molecular target: T1, Nuclear receptor subfamily 2 group E member 1; test: Agonist activity at human full length Gal4-fused TLX transfected in human HEK293T cells coexpressing pFR-TAE-Luc assessed as repressor activity of receptor by measuring decrease in reporter activity at 0.03 to 30 uM by dual-glo luciferase assay; type: cell-based; conditions: dose 0.03-30 µM
[21] = molecular target: T1, Nuclear receptor subfamily 2 group E member 1; test: Agonist activity at TLX in human T98G cells assessed as upregulation of SIRT1 mRNA expression at 30 uM measured after 8 hrs by qRT-PCR analysis; type: cell-based; conditions: filed as agonist
T98G [22] = test: Upregulation of TLX gene expression in human T98G cells at 30 uM measured after 8 hrs by qRT-PCR analysis; type: functional, cell-based

T1 sequence (Q9Y466 whole entry, the tested form may be a part): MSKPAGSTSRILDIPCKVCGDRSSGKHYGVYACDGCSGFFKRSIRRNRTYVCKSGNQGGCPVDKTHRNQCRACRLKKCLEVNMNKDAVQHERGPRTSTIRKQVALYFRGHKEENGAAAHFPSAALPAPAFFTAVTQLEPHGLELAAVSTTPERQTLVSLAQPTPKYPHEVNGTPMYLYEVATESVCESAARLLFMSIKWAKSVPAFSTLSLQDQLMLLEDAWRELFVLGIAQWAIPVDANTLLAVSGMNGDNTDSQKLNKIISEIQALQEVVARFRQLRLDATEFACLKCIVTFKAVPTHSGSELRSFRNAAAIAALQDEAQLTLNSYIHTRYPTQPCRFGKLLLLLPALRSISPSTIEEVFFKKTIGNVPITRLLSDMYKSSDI

Structure (SMILES): Cc1cn(-c2cc(NC(=O)C(c3ccccc3)c3ccccc3)cc(C(F)(F)F)c2)cn1
- Activity (HEK-293T [1]): Toxic

Structure (SMILES): CCCCOc1cc(C(=O)Nc2cc(-n3cnc(C)c3)cc(C(F)(F)F)c2)c2ccccc2n1
- Activity (HEK-293T [2]): inactive
- EC50 [3]: 0.25 µM
- EC50 [4]: 0.7 µM
- Kd [5]: 1.6 µM
- deltaH [6]: 114 kcal/mol
- EC50 [7]: 5 µM
- Activity (HEK-293T [8]): Non-Toxic
- half-life at 10 µM [9]: 2.37 h
- Activity [10]: Active
- Activity (T98G [11]): inactive
- solubility [12]: Soluble
- TdeltaS [13]: 123 kcal/mol

Structure (SMILES): Cc1cn(-c2cc(NC(=O)COc3cccc4ccccc34)cc(C(F)(F)F)c2)cn1
- Activity [14]: inactive

Structure (SMILES): Cc1cc(C(=O)N2CCN(C(c3ccccc3)c3ccccc3)CC2)nn1C
- Activity (HEK-293T [8]): Non-Toxic
- metabolised at 1 h, 10 µM [15]: 100%
- Activity (T98G [16]): inactive
- ΔTm [17]: -1.08 °C

Structure (SMILES): CC(=O)Nc1cc(-n2cnc(C)c2)cc(C(F)(F)F)c1
- EC50 [3]: 11 µM

Structure (SMILES): CC1(C)CC=C(c2ccccc2)c2cc(/C=C/c3ccc(C(=O)O)cc3)ccc21
- Activity (HEK-293T [18]): Toxic
- solubility [12]: Soluble
- Activity [19]: Active
- Activity [20]: inactive

Structure (SMILES): Cc1cn(-c2cc(NC(=O)C3CCc4[nH]c5ccccc5c4C3)cc(C(F)(F)F)c2)cn1 (stereo not drawn)
- Activity [14]: inactive

Structure (SMILES): Cc1cn(-c2cc(NC(=O)N3CCN(c4ccc(O)cc4)CC3)cc(C(F)(F)F)c2)cn1
- EC50 [3]: 5 µM

Structure (SMILES): COc1cc(N)c(Cl)cc1C(=O)Nc1cc(-n2cnc(C)c2)cc(C(F)(F)F)c1
- EC50 [3]: 3 µM

Structure (SMILES): Cc1cn(-c2cc(NC(=O)CCCc3ccc(-c4ccccc4)cc3)cc(C(F)(F)F)c2)cn1
- EC50 [3]: 1.2 µM

Structure (SMILES): Cc1cn(-c2cc(N)cc(C(F)(F)F)c2)cn1
- Activity (HEK-293T [2]): inactive
- EC50 [3]: 20 µM
- solubility [12]: Soluble
- Activity [21]: Active
- Activity (T98G [22]): inactive
- ΔTm [17]: -1.69 °C
